Results reported in patent US12162811B2, “F-18 labeled chiral pure derivative of hydroxyfuran, preparation method and use thereof” (The First Affiliated Hospital of Sun Yat-sen University, priority 2022, dated 2024).
“Also recorded” adds a separate entry of the source.

How the values were obtained:
HCT8 xenograft tumor = test: micro-PET/CT imaging of tumor-bearing nude mice after intratumoral or tail vein injection; format: in vivo, nude mouse; details: for SUVmax in the tumor: 5 min after injection; for SUVmax of the tumors: 1 h
Procedure: A nude mouse model with HCT8 xenograft tumor was established, and dynamic imaging was performed after intratumoral injection upon anesthesia of the tumor-bearing mice: 0.1 mL (about 100 μCi) of the solution prepared automatically with saline dilution with or without supersaturated sodium ascorbate was taken from a 1 mL syringe needle, and the solution was injected intratumorally into the nude mice model with an automatic syringe pump at 0.1 mL/min, and a dynamic 1-h microPET/CT imaging was performed. Delayed imaging was performed: statically imaged 2 h after injection.
Static micro-PET/CT imaging was performed 1 hour after tail vein injection in the anesthetized tumor-bearing mice.

[1] = biodistribution in human body (ROI time-activity profiles of source organs); format: in vivo
From the text: For the 6 sets of images obtained by Example 5, the ROI was depicted in the whole body images at the first time point and replicated to subsequent time point scans so as to determine the cumulative radioactivity in each source organ. The genital volume was manually adjusted if necessary. Major source organs include brain, thyroid, lung, heart wall, liver, gallbladder, stomach, adrenals, kidneys, pancreas, spleen, uterus (female only), testes (male only), and bone marrow. The biodistribution analysis included muscle and the absorbed dose analysis included bladder. Spinal ROIs were plotted as an alternative to the red bone marrow. Time-activity profiles were derived from each ROI, and cumulative radioactivity for each source organ was expressed as a percentage of the injected dose (% ID).

tumor lesions = test: whole-body dynamic PET/CT imaging of tumor patients; format: in vivo, human
Procedure: Six patients with different tumors fasted and urinated for at least 6 hours prior to receiving PET/CT scanning, approximately 5, 13, 30, 45 and 60 minutes after injection of (4R, 5R)[^18F]FAA (mean 448±113 MBq), the five consecutive whole-body dynamic PET/CT scanning was conducted for each participant using a uMI 780 scanner (United Imaging Healthcare) or Discovery MI scanner (GE Healthcore). The CT acquisition parameters of the uMI 780 scanner were 120 kV, smart 100-200 mAs, detector coverage of 40 mm, spacing of 0.9875, slice thickness of 1.0 mm, and rotation time of 0.5 s. The PET emission scan time was 1.5 min per bed with 6 beds covering the scanning area. Finally, the PET images were reconstructed by the regularized ordered subset expectation maximization algorithm (R-OSEM, UNITED IMAGING) with attenuation normalization using ACCT images. The CT acquisition parameters of the Discovery MI scanner were 120 kV, smart 120-180 mA, detector coverage of 40 mm, slice thickness of 0.625 mm, pitch to speed of 0.984:1, 39.37 and rotation time of 0.6 s. The PET emission scanning time was 1 min per bed with 6 to 8 beds covering the scanning area. Finally, the PET images were reconstructed by a Bayesian penalized likelihood (BPL) reconstruction algorithm (Q.clear, GE Healthcare) and attenuation nominalization was performed using ACCT images. Urine samples were collected after the last PET/CT scan and total radioactivity of the urine was assessed.

[2] = radiometrics: residence times and radiation absorbed dose (MIRD); format: in vivo, human
Procedure: For the six sets of data obtained through Example 6, the residence times were calculated as the area under each time-activity curve by curve fitting with either a mono-or bi-exponential function model. The residence times of the bladder were generated by the integration of the time-activity curve from zero time to the last emission scan time plus the integration of the function from the last scan time to infinity (physical decay only). These residence times are then used for radiation absorbed dose calculations. The radiation absorbed dose was calculated for each subject using the Medical Internal Radiation Dose (MIRD) algorithm. The absorbed dose in the target area specified by MIRD was calculated according to the standardized Cristy Eckerman 70 kg adult male model, and the effective dose was assessed according to the tissue weighting factors in the publication of International Commission on Radiological Protection.

[3] = comparison PET tracer; cited from earlier work
[4] = intratumoral injection, with supersaturated sodium ascorbate
[5] = intratumoral injection, without supersaturated sodium ascorbate

For `O=C1O[C@H]([C@@H](O)C[18F])C(O)=C1O` [(4R, 5R)[^18F]FAA], the “effect of added supersaturated sodium ascorbate on metabolism of the tracer in the liver” value (HCT8 xenograft tumor; intratumoral injection, dynamic imaging) was “significantly inhibited”, the “SUVmax in the tumor” value (HCT8 xenograft tumor; [4]) was 165 % ID/g and the “SUVmax of the tumors” value (HCT8 xenograft tumor; [4]) was 45 % ID/g. For the same molecule, the “SUVmax in the tumor” value (HCT8 xenograft tumor; [5]) was 88 % ID/g, the “SUVmax of the tumors” value (HCT8 xenograft tumor; [5]) was 34 % ID/g and the “SUVmax of tumors, delayed imaging” value (HCT8 xenograft tumor; intratumoral injection, without supersaturated sodium ascorbate, 2 h after injection) was 35 % ID/g. The “SUVmax of the tumors” value (HCT8 xenograft tumor; tail vein injection) was 6.3 % ID/g, the uptake in tumors (HCT8 xenograft tumor; tumor-bearing mice) was “certain tumor uptake; also recorded: high uptake in tumors” and the “uptake in liver, adrenal glands, choroid plexus, pituitary gland and thyroid (exception of the kidney)” value ([1]; 1 h after injection) was “high uptake”. For the same molecule, the “uptake in heart, muscle and brain” value ([1]; during the imaging phase) was “low”, the “uptake in liver, adrenal glands, kidneys, choroid plexus, pituitary gland and thyroid” value ([1]; earliest imaging time point, most subjects) was “high uptake” and the route of excretion ([1]; human) was “excreted mainly through the kidneys to the bladder”. For the same molecule, the “uptake in spleen, intestine, salivary glands and bone marrow” value ([1]; slow clearance over time) was “moderate uptake”, the metastases detected (tumor lesions; 6 patients) was 168 and the primary lesions detected (tumor lesions; 6 patients) was 2. For the same molecule, the “mean SUVmax in all tumor lesions” value (tumor lesions; 6 patients, all tumor lesions) was 6.89±3.82, the “median SUVmax in all tumor lesions” value (tumor lesions; 6 patients, all tumor lesions) was 6.07 and the “range of SUVmax in all tumor lesions” value (tumor lesions; 6 patients, all tumor lesions) was 1.62-22.85. The tumor radioactivity uptake (tumor lesions; kidney cancer and intestinal cancer patients) was “average tumor radioactivity uptake”, the “uptake in primary and metastatic tumor foci” value (tumor lesions; thyroid cancer and lung cancer) was “very high uptake” and the safety in humans (tumor lesions; tumor patients) was “safe for use in humans”. For the same molecule, the uptake in tumors (tumor lesions; tumor patients) was “high uptake in tumors”, the “mean effective dose (ED)” value ([2]; ICRP tissue weighting factors) was 1.68±0.36E-02 mSv/MBq and the absorbed dose ([2]; adrenal gland) was 1.89±0.61E-02 mGy/MBq. The residence time ([2]; bladder wall) was 1.16±0.54E-03 hours, the absorbed dose ([2]; brain) was 4.88±1.21E-03 mGy/MBq and the absorbed dose ([2]; kidney) was 1.87±0.38E-02 mGy/MBq. The residence time ([2]; kidney) was 1.77±0.53 E-03 hours, the absorbed dose ([2]; liver) was 3.42±0.75E-02 mGy/MBq and the residence time ([2]; liver) was 22.5±4.94 E-02 hours. For the same molecule, the residence time ([2]; lung) was 3.18±0.49 E-02 hours, the absorbed dose ([2]; spleen) was 2.95±1.70E-02 mGy/MBq and the residence time ([2]; spleen) was 2.19±1.59 E-02 hours. The residence time ([2]; thymus) was 2.74±1.37E-05 h and the “mean systemic absorbed dose” value ([2]; whole body) was 6.54±1.58E-03 mSv/MBq.

For [^18F]FDG, the “systemic absorbed effective dose” value [3] is listed as 1.90±0.36 E-02 mSv/MBq.
